Values of other authors, collected in patent publication US7083802B2, “Treatment of ocular disease” (Advanced Ocular Systems Limited, priority 2003, dated 2006).

Assays:
[1] = reported in co-pending application Ser. No. 10/247,220

For C=CC[C@@H]1/C=C(\C)C[C@H](C)C[C@H](OC)[C@H]2O[C@@](O)(C(=O)C(=O)N3CCCC[C@H]3C(=O)O[C@H](/C(C)=C/[C@@H]3CC[C@@H](O)[C@H](OC)C3)[C@H](C)[C@@H](O)CC1=O)[C@H](C)C[C@@H]2OC [tacrolimus], the “Dose for administration without substantial toxicity” value [1] is given as 250 µg, the “Clinical effect in atopic dermatitis” value (topical, doses 0.03%–0.3%, after 2–3 weeks treatment) is given as “significant clinical improvement” and the “Adverse effects of topical administration versus control” value (treatment of dermatoses, concentrations up to 0.3%) is given as “no significant difference in effects between treated and control groups”.
